Marks after values point to notes of the source that are not given here.
What was measured:
[1] = tested on: androgenetic alopecia (SA) rat model; assay: Androgenetic alopecia (SA) rat model induced by testosterone propionate; type: in vivo, Wistar rats; details: for Skin hair follicles and sebaceous glands: number of rats graded ++ / Skin hair follicles and sebaceous glands: number of rats graded ± / Skin hair follicles and sebaceous glands: number of rats graded + / Skin hair follicles and sebaceous glands: number of rats graded − / Skin hair follicles and sebaceous glands: number of rats graded +++: 10 rats, after 60 days; for Skin hair follicles and sebaceous glands: number of rats graded ++: few follicles with cystic degeneration, sebaceous glands mild hyperplasia and hypertrophy; for Skin hair follicles and sebaceous glands: number of rats graded ±: no hyperplasia in the dermis, limited lesions of hair follicles and sebaceous glands, no subcutaneous inflammation; for Skin hair follicles and sebaceous glands: number of rats graded +: no obvious hyperplasia in dermis, obviously cystic follicles, no inflammation; for Skin hair follicles and sebaceous glands: number of rats graded −: normal skin dermal tissue cells, subcutaneous hair follicles and sebaceous glands; for Skin hair follicles and sebaceous glands: number of rats graded +++: segmental hyperplasia, degenerated follicles, hyperplasia of sebaceous glands, mild inflammatory hyperplasia; for 15 d hair length / 30 d hair length / 45 d hair length / 60 d hair length: rats; for 15 d hair length: 15 days after administration; for 30 d hair length: 30 days after administration; for 45 d hair length: 45 days after administration; for 60 d hair length: 60 days after administration
Experimental: SPF grade Wistar rats were selected and randomly divided into compound group 1 (skin applied with 5% R-IMPP solution), compound group 2 (skin applied with 5% PF 06446846 solution), and compound group 3 (skin applied with 5% SBC-115076 solution), compound group 4 (skin applied with 5% SBC-110736 solution), monoclonal antibody group 1 (subcutaneous injection of PCSK9 monoclonal antibody ab84041, 5 mg/kg·d), monoclonal antibody group 2 (subcutaneous injection of Evolocumab, 5 mg/kg·d), monoclonal antibody group 3 (subcutaneous injection of Alirocumab, 5 mg/kg·d), PCSK9 RNAi inhibitor group-1 (skin applied with 5% PCSK9 small interfering RNA-1 solution), PCSK9 RNAi inhibitor group-2 (skin applied with 5% PCSK9 small interfering RNA-2 solution), PCSK9 RNAi inhibitor group-3 (skin applied with 5% PCSK9 small interfering RNA-3 solution), and polypeptide group (subcutaneous injection of Abcam company ab32727, 3 mg/kg·d), positive control group (skin smeared with 5% minoxidil tincture), negative control group (smeared with 75% ethanol), model control group (smeared with 75% ethanol), 10 rats in each group, half male and half female.
Before the experiment, each rat selected an area of 4 cm×5 cm on the back to remove the hair as the observation area. Except for the negative control group, the rats were subcutaneously injected with testosterone propionate injection [[…]] at the back of the neck, once a day for 60 consecutive days to establish the SA model. […] At the same time, the rats in the corresponding drug group were smeared or subcutaneously injected on the skin of the observation area of the rats in the drug group, smeared 1 ml/(per time), twice a day, with an interval of 8 hours, and administered by subcutaneous injection, once a day. The negative control group and the model control group were smeared with excipient (75% ethanol solution), 1 mL one rat per time, twice a day, for 60 consecutive days.
10 hairs were extracted from the observation area on the back of each rat every 15 days after administration, and the hair length was measured with a vernier caliper. After 60 days of administration, the skin of the experimental observation area was taken for routine tissue dehydration, paraffin embedding, HE staining, and light microscopy to observe the histopathological changes of the rat skin hair follicles and sebaceous glands. Semi-quantitative analysis was carried out in each group. The grading standards are as follows: normal skin dermal tissue cells, subcutaneous hair follicles, and sebaceous glands were marked as “one”; no hyperplasia in the dermis, limited lesions of hair follicles and sebaceous glands, and no subcutaneous inflammation, marked as “±”; no obvious hyperplasia found in the dermis, obviously cystic follicles, no obvious hyperplasia found in the sebaceous glands, and no inflammation is recorded as “+”; segmental hyperplasia of skin and dermis was not obvious, a small number of hair follicles had cystic degeneration, and sebaceous glands had mild hyperplasia and hypertrophy. No obvious inflammation under the skin was recorded as “++”; the skin and dermis tissue cells had segmental hyperplasia of different degrees, some follicles degenerated, the size of the hair follicles was uneven, and there were no cells in the periphery. There was hyperplasia of sebaceous glands, and there were few nuclei in the hyperplasia glands. Individual rats had mild inflammatory hyperplasia under the skin, which was marked as “+++”.

[2] = tested on: hair follicles / hair growth in depilated C57BL/6 mice; assay: Hair growth in C57BL/6 mice after rosin/paraffin depilation; type: in vivo; details: for Time from hair growth to the same length as the hair in the non-experimental area / Time to grow new hair / Time to match the length of hair in the non-experimental area: back hair removal area of mice; for Black skin duration / Skin black-turning time / Skin grayish-black-turning time: hair removal area on the back of mice; for Skin black-turning time / Skin grayish-black-turning time: after hair removal
Experimental: SPF grade C57BL/6 mice were selected and numbered according to their weight. They were randomly divided into compound group 1 (skin applied with 2% R-IMPP solution), compound group 2 (skin applied with 2% PF 06446846 solution), and compound group 3 (skin applied with 2% SBC-115076 solution), compound group 4 (skin applied with 2% SBC-110736 solution), monoclonal antibody group 1 (PCSK9subcutaneous injection monoclonal antibody ab81041, 5 mg/kg·d), monoclonal antibody group 2 (Subcutaneous injection of Evolocumab, 5 mg/kg·d), monoclonal antibody group 3 (subcutaneous injection of Alirocumab, 5 mg/kg·d), PCSK9 RNA interference group-1 (skin applied with 2% PCSK9 small interfering RNA-1 solution), PCSK9 RNA interference Group-2 (skin applied with 2% PCSK9 small interfering RNA-2 solution), PCSK9 RNA interference group-3 (skin applied with 2% PCSK9 small interfering RNA-3 solution), polypeptide group (subcutaneous injection of Abcam company ab32727, 3 mg/kg·d), positive control group (skin applied with 2% minoxidil solution), negative control group (skin applied with 60% ethanol), and model control group (skin applied with 60% ethanol), 10 mice in each group, half male and half female. After the mice were anesthetized with ether, they were coated on the back with a mixture of rosin and paraffin (1:1) after hot melting, and then peeled off after it solidified and hardened. The back of the mouse was cleaned to be hairless and without injuries. The depilation area was about 3 cm×4 cm. From the 2nd day after depilation, the corresponding drugs were applied to the hair removal area, twice a day, 0.5 mL per animal each time, and subcutaneously injected once a week.
From the second day after application, observe the daily color change of the skin on the back of the mice to determine the growth state of the hair follicles and visually observe the hair growth in the depilation area, and score the new hair growth in the depilation area once a day. Five mice in each group were reserved for 40 days of visual observation, and the growth of back hair was recorded.
On the 17th day, five mice in each group were sacrificed by cervical dislocation. The samples were taken from the same part of the back parallel to the spine, fixed with 10% formaldehyde, dehydrated, embedded in paraffin, sectioned, stained with HE, and sealed with neutral gum. Then the histology of hair follicles was observed under light microscope, and morphological staging of hair follicles was performed. According to the international hair cycle scoring method, the hair follicles were scored as follows: 100 points for growth stage VI, 200 points for early regression, 300 points for middle regression, and 400 points for late regression. 50 hair follicles were randomly selected from each mouse, the cycle of the hair follicles in each group was determined, and the average hair cycle score and the percentage of hair follicles in the growth phase VI, early regression, middle regression, and late regression were calculated.

Row | Molecule | Skin hair follicles and sebaceous glands: number of rats graded ++ [1] | Skin hair follicles and sebaceous glands: number of rats graded ± [1] | Skin hair follicles and sebaceous glands: number of rats graded + [1] | Skin hair follicles and sebaceous glands: number of rats graded − [1] | Skin hair follicles and sebaceous glands: number of rats graded +++ [1] | 15 d hair length [1] | 30 d hair length [1] | 45 d hair length [1] | 60 d hair length [1] | Time from hair growth to the same length as the hair in the non-experimental area [2] | Time to grow new hair [2] | Time to match the length of hair in the non-experimental area [2] | Black skin duration [2] | Skin black-turning time [2] | Skin grayish-black-turning time [2]
1 | CC(=O)Nc1ccc(C(=O)N2CCN(c3ccc(C)cc3)CC2c2ccccc2)cc1 (stereo not drawn) [Compound group 4, SBC-110736] | 2 | 4 | 3 | 1 | 0 | 8.1* mm | 8.6* mm | 14.3* mm | 17.3* mm | 11.87* days | 6.98* days | 18.46* days | 12.32* days | 5.78* days | 18.46* days
2 | Cc1cc(C(=O)C2=C(O)C(=O)N(CCCN3CCOCC3)C2c2ccncc2)ccc1OCc1ccccc1 (stereo not drawn) [Compound group 3, SBC-115076] | 3 | 4 | 2 | 1 | 0 | 8.3* mm | 8.8* mm | 14.5* mm | 17.6* mm | 11.52* days | 6.95* days | 19.35* days | 11.65* days | 5.63* days | 18.12* days
3 | Inclisran [RNA interference group 2] | 1 | 4 | 4 | 1 | 0 | 8.3* mm | 9.1* mm | 14.5* mm | 16.9* mm | 14.12* days | 6.92* days | 20.16* days | 11.87* days | 5.66* days | 18.23* days
4 | O=C(c1ccc(-n2nnc3cccnc32)cc1)N(c1ncccc1Cl)[C@@H]1CCCNC1 [Compound group 2, PF 06446846] | 1 | 5 | 2 | 2 | 0 | 9.2* mm | 10.1* mm | 15.2* mm | 18.9* mm | 10.46* days | 6.33* days | 17.69* days | 10.86* days | 5.45* days | 17.32* days
5 | ALN-PCS [RNA interference group 3] | 2 | 3 | 4 | 1 | 0 | 8.2* mm | 8.9* mm | 14.2* mm | 16.7* mm | 14.26* days | 6.96* days | 21.38* days | 12.16* days | 6.08* days | 18.52* days
6 | Alirocumab [Monoclonal antibody group 3] | 1 | 4 | 2 | 3 | 0 | 9.5* mm | 10.5* mm | 15.5* mm | 19.2* mm | 10.13* days | 6.06* days | 16.75* days | 13.43* days | 5.35* days | 16.65* days
7 | COc1ccc(CCC(=O)N(c2nccc3ccccc23)[C@@H]2CCCNC2)cc1 [Compound group 1, R-IMPP] | 3 | 5 | 2 | 0 | 0 | 8.9* mm | 9.9* mm | 14.7* mm | 18.2* mm | 11.14* days | 6.92* days | 18.06* days | 14.29* days | 5.96* days | 20.25* days

From patent US20230346773A1, “USE OF PCSK9 INHIBITOR IN PREPARATION OF PRODUCT FOR TREATING MULTIPLE DISEASES” (priority 2020, published 2023)
